# Data from the supplement of paper PMC13380429.
# Columns and labels:
# Details in all cases: 72 h
# Caco-2 [1] = assay: cell viability relative to DMSO; higher = less toxic
# Calu-3 [2] = assay: as above
# HepG2 [3] = assay: as above
# U2OS [4] = assay: as above
# Vero E6 [5] = assay: as above
# Caco-2 [6] = assay: relative viability EC50 (midpoint between 100% and the lowest measured viability); higher = less toxic
# Calu-3 [7] = assay: as above
# HepG2 [8] = assay: as above
# U2OS [9] = assay: as above
# Vero E6 [10] = assay: as above
# Caco-2 [11] = assay: drug sensitivity score (DSS) for viability; higher = more toxic; extreme values may be limits of the assay
# Calu-3 [12] = assay: as above
# HepG2 [13] = assay: as above
# U2OS [14] = assay: as above
# Vero E6 [15] = assay: as above
Structure (SMILES),cell viability (Caco-2 [1]; 1 nM) [%],cell viability (Caco-2 [1]; 10 nM) [%],cell viability (Caco-2 [1]; 100 nM) [%],cell viability (Caco-2 [1]; 1000 nM) [%],cell viability (Caco-2 [1]; 10000 nM) [%],cell viability (Calu-3 [2]; 1 nM) [%],cell viability (Calu-3 [2]; 10 nM) [%],cell viability (Calu-3 [2]; 100 nM) [%],cell viability (Calu-3 [2]; 1000 nM) [%],cell viability (Calu-3 [2]; 10000 nM) [%],cell viability (HepG2 [3]; 1 nM) [%],cell viability (HepG2 [3]; 10 nM) [%],cell viability (HepG2 [3]; 100 nM) [%],cell viability (HepG2 [3]; 1000 nM) [%],cell viability (HepG2 [3]; 10000 nM) [%],cell viability (U2OS [4]; 1 nM) [%],cell viability (U2OS [4]; 10 nM) [%],cell viability (U2OS [4]; 100 nM) [%],cell viability (U2OS [4]; 1000 nM) [%],cell viability (U2OS [4]; 10000 nM) [%],cell viability (Vero E6 [5]; 1 nM) [%],cell viability (Vero E6 [5]; 10 nM) [%],cell viability (Vero E6 [5]; 100 nM) [%],cell viability (Vero E6 [5]; 1000 nM) [%],cell viability (Vero E6 [5]; 10000 nM) [%],relative viability EC50 (Caco-2 [6]) [µM],relative viability EC50 (Calu-3 [7]) [µM],relative viability EC50 (HepG2 [8]) [µM],relative viability EC50 (U2OS [9]) [µM],relative viability EC50 (Vero E6 [10]) [µM],drug sensitivity score (Caco-2 [11]),drug sensitivity score (Calu-3 [12]),drug sensitivity score (HepG2 [13]),drug sensitivity score (U2OS [14]),drug sensitivity score (Vero E6 [15])
C=CC(=O)Nc1cc(Nc2nccc(-c3cn(C)c4ccccc34)n2)c(OC)cc1N(C)CCN(C)C [osimertinib],82.7,97.2,94.2,72.6,9.1,92.6,92.9,72.2,36.7,0.7,99.6,98.8,104,82.4,6,95.7,99.2,92.3,83.6,5,95.9,93.8,90.4,57.7,0,1.44,0.374,1.8,1.86,1.19,8.8,15.8,8.1,8,10.4
CCN(CC)CCOCCOC(=O)C(CC)(CC)c1ccccc1 [oxelaidin],106,85.5,95.9,107,97.3,99,95.8,94.8,94.5,99.7,104,103,104,95.6,87.1,96.9,92.6,94.3,107,101,94.2,95.9,102,99.9,104,> 10,> 10,> 10,> 10,> 10,0,0,0.3,0,0
CCn1cc(C(=O)O)c(=O)c2cc(F)c(N3CCN(C)CC3)cc21 [pefloxacin],94.5,80.2,104,89.5,94.1,100,97.8,97.2,83.3,99,88.6,100,106,99.3,94.6,104,94.8,98.4,96,96,96.8,101,94.2,95.3,90.4,> 10,> 10,> 10,> 10,> 10,0,0,0,0,0
O=c1[nH]c2ccccc2c(=O)n1CCCN1CCN(c2ccccc2)CC1 [pelanserin],101,102,94,103,91.7,94.5,96.2,103,102,116,91.1,93,95.7,107,93.6,97,104,95.6,95.2,94.8,104,105,102,105,95.5,> 10,> 10,> 10,> 10,> 10,0,0,0,0,0
